Data from ChEMBL document CHEMBL4130462, “Natural isoflavone biochanin A as a template for the design of new and potent 3-phenylquinolone efflux inhibitors against Mycobacterium avium” (Eur J Med Chem, 2017).
Converted amounts (≈) assume the structure as drawn.

Legend:
Mycobacterium avium [1] = assay: Antimycobacterial activity against Mycobacterium avium isolate MAV1 assessed as reduction in bacterial viability incubated for 3 days by MTT assay; assay type: organism-based; conditions: in vitro, 72 h
[2] = test system: Mycobacterium avium subsp. avium ATCC 25291
Description: Inhibition of multidrug resistance efflux pump in Mycobacterium avium ATCC 25291 assessed as potentiation of clarithromycin -induced antibacterial activity by measuring clarithromycin MIC at 1/4 MIC incubated for 3 days by MTT assay

Mycobacterium avium [3] = assay: Antimycobacterial activity against Mycobacterium avium isolate MAV2 assessed as reduction in bacterial viability incubated for 3 days by MTT assay; assay type: organism-based; conditions: 72 h
Mycobacterium avium [4] = conditions: isolate MAV4
Mycobacterium avium [5] = conditions: 104 mc'2 4
[6] = test system: Mycobacterium avium subsp. avium ATCC 25291; remark: listed apart in the source
Mycobacterium avium [7] = conditions: 104 mc'2 3
Mycobacterium avium [8] = conditions: 104 mc'2 3; remark: listed apart in the source
Mycobacterium avium [9] = conditions: isolate MAV1
Mycobacterium avium [10] = conditions: 104 mc'2 4; remark: listed apart in the source
Mycobacterium avium [11] = conditions: 104 mc'2 4; remark: listed apart in the source
Mycobacterium avium [12] = conditions: isolate MAV2
[13] = test system: Mycobacterium avium subsp. avium ATCC 25291; remark: listed apart in the source
[14] = test system: Mycobacterium avium subsp. avium ATCC 25291; remark: listed apart in the source
Mycobacterium avium [15] = conditions: isolate MAV2; remark: listed apart in the source
Mycobacterium avium [16] = conditions: isolate MAV3
Mycobacterium avium [17] = conditions: isolate MAV3; remark: listed apart in the source
Mycobacterium avium [18] = conditions: 104 mc'2 4; remark: listed apart in the source
Mycobacterium avium [19] = conditions: isolate MAV4; remark: listed apart in the source
Description: Inhibition of multidrug resistance efflux pump in Mycobacterium avium isolate MAV4 assessed as potentiation of clarithromycin -induced antibacterial activity by measuring clarithromycin MIC at 1/4 MIC incubated for 3 days by MTT assay

Mycobacterium avium [20] = conditions: 104
[21] = test system: Mycobacterium avium subsp. avium ATCC 25291; remark: listed apart in the source
Description: Inhibition of multidrug resistance efflux pump in Mycobacterium avium ATCC 25291 assessed as potentiation of clarithromycin -induced antibacterial activity by measuring clarithromycin MIC at 1/2 MIC incubated for 3 days by MTT assay

Mycobacterium avium [22] = conditions: 104 mc'2 3; remark: listed apart in the source
Mycobacterium avium [23] = assay: Antimycobacterial activity against Mycobacterium avium ATCC 25291 assessed as reduction in bacterial viability incubated for 3 days by MTT assay; assay type: organism-based; conditions: mycobacterium avium subsp. avium atcc 25291, 72 h
Mycobacterium avium [24] = conditions: isolate MAV3; remark: listed apart in the source
Mycobacterium avium [25] = conditions: isolate MAV3; remark: listed apart in the source
Mycobacterium avium [26] = conditions: isolate MAV3; remark: listed apart in the source
Mycobacterium avium [27] = conditions: 104 mc'2 3; remark: listed apart in the source
Mycobacterium avium [28] = conditions: isolate MAV4; remark: listed apart in the source
Description: Inhibition of multidrug resistance efflux pump in Mycobacterium avium isolate MAV4 assessed as potentiation of clarithromycin -induced antibacterial activity by measuring clarithromycin MIC at 1/2 MIC incubated for 3 days by MTT assay

[29] = Safety index, ratio of MTC for test compound to MTC for thioridazine for cytotoxicity in human monocyte-derived macrophages; assay type: cell-based, Macrophage cell line
Mycobacterium avium [30] = conditions: isolate MAV2; remark: listed apart in the source
[31] = test system: Mycolicibacterium smegmatis; assay: Antimycobacterial activity against Mycobacterium smegmatis str. MC2 155 assessed as reduction in bacterial viability incubated for 3 days by MTT assay; assay type: organism-based; conditions: 72 h
Mycobacterium avium [32] = conditions: isolate MAV2; remark: listed apart in the source
Mycobacterium avium [33] = conditions: 104 mc'2 4; remark: listed apart in the source
Mycobacterium avium [34] = conditions: 104 mc'2 3; remark: listed apart in the source
Mycobacterium avium [35] = conditions: isolate MAV3; remark: listed apart in the source
Mycobacterium avium [36] = conditions: 104; remark: listed apart in the source
Mycobacterium avium [37] = conditions: isolate MAV2; remark: listed apart in the source
Description: Inhibition of multidrug resistance efflux pump in Mycobacterium avium isolate MAV2 assessed as potentiation of clarithromycin -induced antibacterial activity by measuring clarithromycin MIC at 1/2 MIC incubated for 3 days by MTT assay (Rvb = >1024 ug/ml)

Mycobacterium avium [38] = conditions: 72 h
Description: Antimycobacterial activity against Mycobacterium avium 104 assessed as reduction in bacterial viability incubated for 3 days by MTT assay

Mycobacterium avium [39] = conditions: 104; remark: listed apart in the source
Mycobacterium avium [40] = conditions: 104 mc'2 3; remark: listed apart in the source
Mycobacterium avium [41] = conditions: isolate MAV4; remark: listed apart in the source
Mycobacterium avium [42] = conditions: 104 mc'2 4; remark: listed apart in the source

CCCOc1ccc(-c2cn(CCN(CC)CC)c3ccccc3c2=O)cc1 showed an MIC (Mycobacterium avium [1]) of 128 µg/mL (≈ 338 µM), an MIC [2] of 8 µg/mL (≈ 21.1 µM) and an MIC (Mycobacterium avium [3]) of 256 µg/mL (≈ 676 µM). For the same compound, the MIC (Mycobacterium avium [4]) was 4 µg/mL (≈ 10.6 µM), the MIC (Mycobacterium avium [5]) was 128 µg/mL (≈ 338 µM) and the MIC [6] was 8 µg/mL (≈ 21.1 µM). The MIC (Mycobacterium avium [7]) was 8 µg/mL (≈ 21.1 µM), the MIC (Mycobacterium avium [8]) was 512 µg/mL (≈ 1350 µM) and the MIC (Mycobacterium avium [9]) was 16 µg/mL (≈ 42.3 µM). For the same compound, the MIC (Mycobacterium avium [10]) was > 512 µg/mL, the MIC (Mycobacterium avium [11]) was 256 µg/mL (≈ 676 µM) and the MIC (Mycobacterium avium [12]) was 16 µg/mL (≈ 42.3 µM). The MIC [13] was 16 µg/mL (≈ 42.3 µM), the MIC [14] was 64 µg/mL (≈ 169 µM) and the MIC (Mycobacterium avium [15]) was 0.5 µg/mL (≈ 1.32 µM). For the same compound, the MIC (Mycobacterium avium [16]) was 8 µg/mL (≈ 21.1 µM), the MIC (Mycobacterium avium [17]) was 4 µg/mL (≈ 10.6 µM) and the MIC (Mycobacterium avium [18]) was 512 µg/mL (≈ 1350 µM). It also gave an MIC (Mycobacterium avium [19]) of 8 µg/mL (≈ 21.1 µM), an MIC (Mycobacterium avium [20]) of 16 µg/mL (≈ 42.3 µM) and an MIC [21] of 8 µg/mL (≈ 21.1 µM). For the same compound, the MIC (Mycobacterium avium [22]) was 3.12 µg/mL (≈ 8.26 µM), the MIC (Mycobacterium avium [23]) was 256 µg/mL (≈ 676 µM) and the MIC (Mycobacterium avium [24]) was 32 µg/mL (≈ 84.5 µM). The MIC (Mycobacterium avium [25]) was 12.5 µg/mL (≈ 33 µM), the MIC (Mycobacterium avium [26]) was 16 µg/mL (≈ 42.3 µM) and the MIC (Mycobacterium avium [27]) was 256 µg/mL (≈ 676 µM). The MIC (Mycobacterium avium [28]) was 1 µg/mL (≈ 2.64 µM), the selectivity ratio [29] was 4 to 6 and the MIC (Mycobacterium avium [30]) was 512 µg/mL (≈ 1350 µM). It also gave an MIC [31] of 256 µg/mL (≈ 676 µM), an MIC (Mycobacterium avium [32]) of 6.25 µg/mL (≈ 16.5 µM) and an MIC (Mycobacterium avium [33]) of 4 µg/mL (≈ 10.6 µM). For the same compound, the MIC (Mycobacterium avium [34]) was 6.25 µg/mL (≈ 16.5 µM), the MIC (Mycobacterium avium [35]) was 4 µg/mL (≈ 10.6 µM) and the MIC (Mycobacterium avium [36]) was 32 µg/mL (≈ 84.5 µM). The MIC (Mycobacterium avium [37]) was 64 µg/mL (≈ 169 µM), the MIC (Mycobacterium avium [38]) was 256 µg/mL (≈ 676 µM) and the MIC (Mycobacterium avium [39]) was 3.12 µg/mL (≈ 8.26 µM). For the same compound, the MIC (Mycobacterium avium [40]) was 4 µg/mL (≈ 10.6 µM), the MIC (Mycobacterium avium [41]) was 8 µg/mL (≈ 21.1 µM) and the MIC (Mycobacterium avium [42]) was 256 µg/mL (≈ 676 µM).

With CCCOc1ccc(-c2cn(CCN3CCCCCC3)c3ccccc3c2=O)cc1 the MIC (Mycobacterium avium [1]) was 128 µg/mL (≈ 316 µM), the MIC [2] was 8 µg/mL (≈ 19.8 µM) and the MIC (Mycobacterium avium [3]) was 128 µg/mL (≈ 316 µM). The MIC (Mycobacterium avium [4]) was < 0.125 µg/mL, the MIC (Mycobacterium avium [5]) was < 4 µg/mL and the MIC [6] was < 0.5 µg/mL. The MIC (Mycobacterium avium [7]) was < 0.125 µg/mL, the MIC (Mycobacterium avium [8]) was < 4 µg/mL and the MIC (Mycobacterium avium [9]) was < 4 µg/mL. For the same compound, the MIC (Mycobacterium avium [10]) was 128 µg/mL (≈ 316 µM), the MIC (Mycobacterium avium [11]) was < 4 µg/mL and the MIC (Mycobacterium avium [12]) was 32 µg/mL (≈ 79.1 µM). For the same compound, the MIC [13] was 8 µg/mL (≈ 19.8 µM), the MIC [14] was 8 µg/mL (≈ 19.8 µM) and the MIC (Mycobacterium avium [15]) was 1 µg/mL (≈ 2.47 µM). It also gave an MIC (Mycobacterium avium [16]) of 2 µg/mL (≈ 4.94 µM), an MIC (Mycobacterium avium [17]) of 1 µg/mL (≈ 2.47 µM) and an MIC (Mycobacterium avium [18]) of 32 µg/mL (≈ 79.1 µM). For the same compound, the MIC (Mycobacterium avium [19]) was 4 µg/mL (≈ 9.89 µM), the MIC (Mycobacterium avium [20]) was 8 µg/mL (≈ 19.8 µM) and the MIC [21] was < 0.0625 µg/mL. The MIC (Mycobacterium avium [22]) was < 0.195 µg/mL, the MIC (Mycobacterium avium [23]) was 256 µg/mL (≈ 633 µM) and the MIC (Mycobacterium avium [24]) was 4 µg/mL (≈ 9.89 µM). For the same compound, the MIC (Mycobacterium avium [25]) was 0.78 µg/mL (≈ 1.93 µM), the MIC (Mycobacterium avium [26]) was 16 µg/mL (≈ 39.5 µM) and the MIC (Mycobacterium avium [27]) was < 4 µg/mL. The MIC (Mycobacterium avium [28]) was < 0.0625 µg/mL, the selectivity ratio [29] was 4 to 6 and the MIC (Mycobacterium avium [30]) was 256 µg/mL (≈ 633 µM). The MIC [31] was 128 µg/mL (≈ 316 µM), the MIC (Mycobacterium avium [32]) was < 0.195 µg/mL and the MIC (Mycobacterium avium [33]) was < 0.125 µg/mL. For the same compound, the MIC (Mycobacterium avium [34]) was 0.78 µg/mL (≈ 1.93 µM), the MIC (Mycobacterium avium [35]) was 0.5 µg/mL (≈ 1.24 µM) and the MIC (Mycobacterium avium [36]) was < 4 µg/mL. For the same compound, the MIC (Mycobacterium avium [37]) was < 4 µg/mL, the MIC (Mycobacterium avium [38]) was 256 µg/mL (≈ 633 µM) and the MIC (Mycobacterium avium [39]) was < 0.195 µg/mL. The MIC (Mycobacterium avium [40]) was 2 µg/mL (≈ 4.94 µM), the MIC (Mycobacterium avium [41]) was 2 µg/mL (≈ 4.94 µM) and the MIC (Mycobacterium avium [42]) was < 4 µg/mL.
